Patent US7122359B2, “Active-site engineering of nucleotidylyltransferases and general enzymatic methods for the synthesis of natural and “unnatural” UDP- and TDP-nucleotide sugars” (priority 2000, dated 2006)
“Also recorded” adds a separate entry of the source.

Columns and labels:
[1] = molecular target: T1, Salmonella enterica LT2 α-D-glucopyranosyl phosphate thymidylyltransferase (Ep) (Salmonella typhimurium, UniProt P26393); test: Ep-catalyzed conversion of α-D-hexopyranosyl phosphates and NTP to NDP-sugars, HPLC (FIG. 2); format: biochemical; conditions: for activity as Ep substrate with TTP: 5 mM NTP, 10 mM sugar phosphate, 30 min, 37° C.; for utilization as NTP substrate by Ep: NTP substrate specificity
T1 construct: made in house; host or cells: E. coli (E. coli-prfbA-C)
Text: FIG. 2. E^p-Catalyzed Conversion of Substrates wherein superscript indicators (a)–(h) are as follows: (a) Percent conversion=[Ap/(AP+AT)]×100, where AP is the NDP-sugar product peak integration and AT represents the NTP peak integration. HRMS for all observed products reported in the supporting information. (b) Standard retention times: TDP, […]; TTP, 7.2 mm; UDP, 4.0 mm; UTP, 6.1 mm. (c) Commercially available. (d) Coelutes with commercially available standard. […] (f) Adjusted for the 2:1 α/β-28. (g) In contrast to previously published studies (See Lindquist, L; Kaiser, R.; Reeves, P. R.; Lindberg, A. A., Eur J. Biochem, 1993, 211, 763–770). (h) No products observed.
To evaluate the synthetic utility of purified thymidylyltransferase, Ep, α-D-hexopyranosyl phosphate, Mg^+2 and NTP were incubated at about 37° C. for about 30 min and the extent of product formation determined by HPLC. The results of these assays are illustrated in FIG. 2. Confirmation of product formation was based upon HPLC co-elution with commercially available standards and/or HPLC isolation and high resolution mass spectroscopy of the product. […] A reaction containing 5 mM NTP, 10 mM sugar phosphate and 5.5 mM MgCl2 in a total volume of 50 μL 50 mM potassium phosphate buffer, pH 7.5 at 37° C. was initiated by the addition of 3.52 U Ep (1 U=the amount of protein needed to produce 1 μmol TDP-D-glucose min^−1). The reaction was incubated with slow agitation for 30 min at 37° C., quenched with MeOH (50 μL), centrifuged (5 min, 14,000×g) and the supernatant was stored at −20° C. until analysis by HPLC. Samples (20 μL) were resolved on a Sphereclone 5 u SAX column (250×4.6 mm) fitted with a guard column (30×4.6 mm) using a linear gradient (20–60 mM potassium phosphate buffer, pH 5.0, 1.5 mL min^−1, A275 nm).

[2] = molecular target: T2, wild-type Ep (Salmonella typhimurium, UniProt P26393); test: Conversion of sugar phosphates by wild-type enzyme (FIG. 11); format: biochemical, Salmonella enterica LT2
T2 construct: made in house; host or cells: E. coli (E. coli-prfbA-C)
Method: (§1) FIG. 11. Percent conversion of sugar phosphates according to the present invention by wild-type and mutant enzymes. The alterations from native substrate (Glc-1-P,1) are highlighted in red. For the mutant pool, mutants Asp41Asn, Glu62Asp, Thr201A and Trp224His were pooled, concentrated and an aliquote constituting 60 μg of each mutant (corresponding to 3.5U Ep) was utilized for the assay.
Percent conversion was determined as described in Jiang, J., Biggins, J. B. & Thorson, J. S. A General Enzymatic Method for the Synthesis of Natural and “Unnatural” UDP- and TDP-Nucleotide Sugars. J. Am. Chem. Soc. 122, 6803–6804 (2000).
(§2) Assays for product formation and steady state kinetics were accomplished using conditions similar to those described. in Jiang, J., Biggins, J. B. & Thorson, J. S. A General Enzymatic Method for the Synthesis of Natural and “Unnatural” UDP- and TDP-Nucleotide Sugars. J. Am. Chem. Soc. 122, 6803-6804 (2000). For the mutant pool assays, an aliquot which contained an eqimolar ratio of each mutant (60 μg) was utilized.

[3] = tested on: mutant pool (Asp41Asn, Glu62Asp, Thr201A and Trp224His Ep mutants); test: Conversion of sugar phosphates by pooled Ep mutants (FIG. 11); format: biochemical, Salmonella enterica LT2; conditions: 60 μg of each mutant
Method: as §1
As a rapid means to assay the entire pool of the four newly constructed mutants, the mutants were combined and the mixture directly tested for ability to convert compounds (2), (108), (89), (102), (38), and (127). […] Those substrates turned over include […] and (127), the two sugar phosphates not accepted or poorly accepted by wild-type Ep.
as §2

[4] = molecular target: T3, Ep Trp224His mutant (Salmonella typhimurium, UniProt P26393, W224H); test: Individual mutant analysis: Trp224His; format: biochemical, Salmonella enterica LT2; conditions: deconvolution of the mutant pool
T3 construct: made in house
Text: Thr102Ala, on the other hand, was responsible for the 2-fold increase in the conversion of (108). […] Yet, cumulatively, this small set of directed mutants was able to successfully turn over three of four targeted “unnatural” substrates. […] This Ep variant will serve as an excellent foundation for second generation double mutants.
as §2

[5] = molecular target: T1, Salmonella enterica LT2 α-D-glucopyranosyl phosphate thymidylyltransferase (Ep); test: Ep-catalyzed conversion of aminodeoxy/acetamidodeoxy sugar phosphates with inorganic pyrophosphatase, HPLC (FIG. 4); format: biochemical; conditions: 2.5 mM NTP, 5.0 mM sugar phosphate, 10 U inorganic pyrophosphatase, 30 min, 37° C.
Method: To evaluate the synthetic utility of thymidylyl-transferase, purified Ep, α-D-glucopyranosyl phosphate, Mg^+2, NTP and inorganic pyrophosphatase were incubated at 37° C. for 30 min and the extent of product formation determined by HPLC. The inorganic pyrophosphatase was included to drive the reaction forward. A reaction containing 2.5 mM NTP, 5.0 mM sugar phosphate, 5.5 mM MgCl2 and 10 U inorganic pyrophosphatase in a total volume of 50 μL 50 mM potassium phosphate buffer, pH 7.5 at 37° C. was initiated by the addition of 3.52 U Ep (1 U=the amount of protein needed to produce […] TDP-D-glucose min^−1). The reaction was incubated with slow agitation for 30 min at 37° C., quenched with MeOH (50 μL), centrifuged (5 min, 14,000×g) and the supernatant was stored at −20° C. until analysis by HPLC. Samples (30 μL) were resolved on a Sphereclone 5u SAX column (150×4.6 mm) fitted with a SecurityGuard ™ cartridge (Phenomenex; Torrance, Calif.) using a linear gradient (50–200 mM potassium phosphate buffer, pH 5.0, 1.5 mL min^−1, A275 nm).
The results of these assays are illustrated in FIG. 4. For each assay, confirmation of product formation was based upon high resolution mass spectroscopy of HPLC-isolated products and, also in some cases, HPLC co-elution with commercially available standards.
A reaction containing 2.5 mM NTP, 5.0 mM sugar phosphate, 5.5 mM MgCl2 and 10 U inorganic pyrophosphatase in a total volume of 50 μL 50 mM potassium phosphate buffer, pH 7.5 at 37° C. was initiated by the addition of 3.52 U Ep (1 U=the amount of protein needed to produce 1 μmol TDP-α-D-glucose min^−1) The reaction was incubated with slow agitation for 30 min at 37° C., quenched with MeOH (50 μL), centrifuged (5 min, 14,000×g) and the supernatant was stored at −20° C. until analysis by HPLC. Samples (30 μL) were resolved on a Sphereclone 5u SAX column (250×4.6 mm) fitted with a guard column (30×4.6 mm) using a linear gradient (50–200 mM potassium phosphate buffer, pH 5.0, 1.5 mL min^−1, A275 nm).

Compound | activity as Ep substrate with TTP [1] | product formation with dTTP [5] | also measured
O=P([O-])([O-])O[C@H]1O[C@H](CO)[C@@H](O)C[C@H]1O.[Na+].[Na+] [compound 28, Disodium 3-deoxy-α-D-glucopyranosyl Phosphate] | prefers | – | –
O=C(O)[C@H]1O[C@H](OP(=O)(O)O)[C@H](O)[C@@H](O)[C@@H]1O [compound 127, α-D-glucopyranuronic acid 1-(dihydrogen phosphate)] | – | – | acceptance / conversion by wild-type Ep [2]: not accepted; turnover by the mutant pool [3]: turned over; conversion by Trp224His mutant [4]: responsible for converting
N[C@H]1[C@H](O)[C@@H](O)[C@@H](OP(=O)([O-])[O-])O[C@@H]1CO.[Na+].[Na+] [compound 91, Disodium-(4-amino-4-deoxy-α-D-glucopyranosyl) Phosphate] | – | little or no effect | –
N[C@@H]1[C@@H](O)[C@@H](OP(=O)([O-])[O-])O[C@H](CO)[C@H]1O.[Na+].[Na+] [compound 96, Disodium (3-amino-3-deoxy-α-D-glucopyranosyl) Phosphate] | – | little or no effect | –
O=P(O)(O)O[C@H]1O[C@H](CO)[C@H](O)[C@H](O)[C@H]1O [compound 57, α-D-galactopyranosyl phosphate, reference compound] | prefers | – | –
CC(=O)N[C@H]1[C@H](O)[C@@H](O)[C@@H](OP(=O)([O-])[O-])O[C@@H]1CO.[Na+].[Na+] [compound 92, Disodium-(4-acetamido-4-deoxy-α-D-glucopyranosyl) Phosphate] | – | less activity | –
O=P([O-])([O-])O[C@H]1O[C@H](CO)C[C@H](O)[C@H]1O.[Na+].[Na+] [compound 20, Disodium 4-deoxy-α-D-glucopyranosyl Phosphate] | prefers | – | –
O=P(O)(O)O[C@H]1O[C@H](CO)[C@@H](O)[C@H](O)[C@@H]1O [compound 56, α-D-mannopyranosyl phosphate, reference compound] | prefers | – | –
O=P([O-])([O-])O[C@H]1O[C@H](CO)[C@H](O)[C@@H](O)[C@@H]1O.[Na+].[Na+] [compound 51, Disodium α-D-idopyranosyl Phosphate] | less activity | – | –
CC(=O)N[C@@H]1[C@@H](O)[C@@H](OP(=O)([O-])[O-])O[C@H](CO)[C@H]1O.[Na+].[Na+] [compound 97, Disodium-(3-acetamido-3-deoxy-α-D-glucopyranosyl) Phosphate] | – | well-tolerated | product formation with UTP [5]: adverse UTP-dependent effect upon yields
O=P([O-])([O-])O[C@H]1O[C@H](CO)[C@@H](O)[C@@H](O)[C@@H]1O.[Na+].[Na+] [compound 47, Disodium α-D-altropyranosyl Phosphate] | less activity | – | –
Ethyl 2,3,4,6-tetra-O-benzyl-1-thio-β-D-gulopyranoside [compound 31] | less activity | – | –
O=c1ccn([C@@H]2O[C@H](COP(=O)(O)OP(=O)(O)OP(=O)(O)O)[C@@H](O)[C@H]2O)c(=O)[nH]1 [UTP, reference compound] | – | – | utilization as NTP substrate by Ep [1]: utilizes
O=P([O-])([O-])O[C@H]1O[C@H](CO)[C@@H](O)[C@@H](O)[C@H]1O.[Na+].[Na+] [compound 38, Disodium α-D-allopyranosyl Phosphate] | less activity | – | acceptance / conversion by wild-type Ep [2]: poor conversion
N[C@H]1[C@@H](OP(=O)(O)O)O[C@H](CO)[C@@H](O)[C@@H]1O [compound 107, 2-amino-2-deoxy-α-D-glucopyranosyl phosphate, reference compound] | – | little or no effect | –
O=P([O-])([O-])O[C@@H]1C[C@@H](O)[C@H](O)[C@@H](CO)O1.[Na+].[Na+] [compound 43, Disodium 2-deoxy-α-D-glucopyranosyl Phosphate] | prefers | – | Product hydrolysis observed, TDP ([1]; FIG. 2 footnote (e), TTP reaction): 7.6%; Product hydrolysis observed, UDP ([1]; FIG. 2 footnote (e), UTP reaction): 10.2%
C[C@H]1O[C@H](OP(=O)([O-])[O-])[C@H](O)[C@@H](O)[C@@H]1N.[Na+].[Na+] [compound 102, Disodium-(4-amino-4,6-dideoxy-α-D-glucopyranosyl) Phosphate] | – | does not effect | product formation with UTP [5]: greatly diminishes
O=P([O-])([O-])O[C@H]1O[C@H](CO)[C@H](O)[C@H](O)[C@@H]1O.[Na+].[Na+] [compound 55, Disodium α-D-talopyranosyl Phosphate] | less activity | – | –
C[C@H]1O[C@H](OP(=O)([O-])[O-])[C@H](O)[C@@H](O)[C@@H]1O.[Na+].[Na+] [compound 12, Disodium 6-deoxy-α-D-glucopyranosyl Phosphate] | prefers | – | –
Nc1ccn([C@@H]2O[C@H](COP(=O)(O)OP(=O)(O)OP(=O)(O)O)[C@@H](O)[C@H]2O)c(=O)n1 [CTP, reference compound] | – | – | utilization as NTP substrate by Ep [1]: not and not accepted
NC[C@H]1O[C@H](OP(=O)([O-])[O-])[C@H](O)[C@@H](O)[C@@H]1O.[Na+].[Na+] [compound 85, Disodium-(6-amino-6-deoxy-α-D-glucopyranosyl) Phosphate] | – | little or no effect | product formation with UTP ([5]; Phosphate): exception; also recorded: adverse UTP-dependent effect upon yields
